Experimental data taken from ChEMBL document CHEMBL1641593, “Benzothieno[3,2-b]quinolinium and 3-(phenylthio)quinolinium compounds: Synthesis and evaluation against opportunistic fungal pathogens” (Bioorg Med Chem, 2011).
Converted amounts (≈) assume the structure as drawn. The source made the active and inactive calls. No cut-off for these calls is given here.

How the values were obtained:
[1] = test system: Aspergillus fumigatus; assay: Antifungal activity against Aspergillus fumigatus ATCC 90906 by CLSI method; assay type: functional, organism-based
[2] = test system: Candida albicans; assay: Antifungal activity against Candida albicans ATCC 90028 by CLSI method; assay type: functional, organism-based; conditions: Candida albicans, ATCC 90028
[3] = test system: Cryptococcus neoformans; assay: Antifungal activity against Cryptococcus neoformans ATCC 90113 by CLSI method; assay type: functional, organism-based
[4] = test system: Pichia kudriavzevii; assay: Antifungal activity against Candida krusei ATCC 6258 by CLSI method; assay type: functional, organism-based
[5] = test system: Vero; assay: Cytotoxicity against african green monkey Vero cells after 48 hrs by neutral red assay; assay type: cell-based; conditions: Chlorocebus sabaeus
[6] = test system: Cryptococcus neoformans; assay: Antifungal activity against Cryptococcus neoformans ATCC 90113 at 20 ug/ml by CLSI method; assay type: functional, organism-based
[7] = test system: Aspergillus fumigatus; assay: Antifungal activity against Aspergillus fumigatus ATCC 90906 at 20 ug/ml by CLSI method; assay type: functional, organism-based
[8] = test system: Candida albicans; assay: Antifungal activity against Candida albicans ATCC 90028 at 20 ug/ml by CLSI method; assay type: functional, organism-based
[9] = test system: Cryptococcus neoformans; assay: Antifungal activity against Cryptococcus neoformans ATCC 52657-infected mouse assessed as reduction of CFU per gram of brain at 10 mg/kg, ip qd for 5 days relative to control; assay type: functional; set-up: scale not given: the % may be the effect or the level left; conditions: route intraperitoneal
[10] = test system: Candida albicans; assay: Antifungal activity against Candida albicans B311 ATCC 32354-infected mouse assessed as reduction of CFU per gram of kidney at 1.2 mg/kg, ip qd for 3 days relative to control; assay type: functional; set-up: scale not given: the % may be the effect or the level left; conditions: route intraperitoneal
[11] = test system: Cryptococcus neoformans; assay: Antifungal activity against Cryptococcus neoformans ATCC 52657-infected mouse assessed as reduction of CFU per gram of brain at 1.2 mg/kg, ip qd for 5 days relative to control; assay type: functional; set-up: scale not given: the % may be the effect or the level left; conditions: route intraperitoneal
[12] = Toxicity in Candida albicans B311 ATCC 32354-infected mouse assessed as white deposits of unknown origin in peritoneal cavity at 20 mg/kg, ip qd for 3 days; assay type: organism-based; set-up: dose 20 mg/kg, route intraperitoneal; conditions: in vivo, 72 h
[13] = test system: Candida albicans; assay: Antifungal activity against Candida albicans B311 ATCC 32354-infected mouse assessed as reduction of CFU per gram of kidney at 1 mg/kg, ip qd for 3 days relative to control; assay type: functional; set-up: scale not given: the % may be the effect or the level left; conditions: route intraperitoneal
[14] = test system: Cryptococcus neoformans; assay: Antifungal activity against Cryptococcus neoformans ATCC 52657-infected mouse assessed as reduction of CFU per gram of brain at 1 mg/kg, ip qd for 5 days relative to control; assay type: functional; set-up: scale not given: the % may be the effect or the level left; conditions: route intraperitoneal
[15] = Toxicity in Candida albicans B311 ATCC 32354-infected ip dosed mouse administered qd for 3 days; assay type: organism-based; conditions: in vivo
[16] = test system: Cryptococcus neoformans; assay: Antifungal activity against Cryptococcus neoformans ATCC 52657-infected mouse assessed as reduction of CFU per gram of brain at 5 mg/kg, ip qd for 5 days relative to control; assay type: functional; set-up: scale not given: the % may be the effect or the level left; conditions: route intraperitoneal
[17] = test system: Mus musculus; assay: Toxicity in Candida albicans B311 ATCC 32354-infected mouse assessed as change in body weight at 1 to 10 mg/kg, ip qd for 3 days; assay type: organism-based; set-up: dose 1-10 mg/kg, route intraperitoneal; conditions: in vivo, 72 h
[18] = test system: Candida albicans; assay: Antifungal activity against Candida albicans B311 ATCC 32354-infected mouse assessed as reduction of CFU per gram of kidney at 5 mg/kg, ip qd for 3 days relative to control; assay type: functional; set-up: scale not given: the % may be the effect or the level left; conditions: route intraperitoneal
[19] = test system: Mus musculus; assay: Toxicity in Candida albicans B311 ATCC 32354-infected mouse assessed as gross pathological lesions at 1 to 10 mg/kg, ip qd for 3 days; assay type: organism-based; set-up: dose 1-10 mg/kg, route intraperitoneal; conditions: in vivo, 72 h
[20] = test system: Candida albicans; assay: Antifungal activity against Candida albicans B311 ATCC 32354-infected mouse assessed as reduction of CFU per gram of kidney at 10 mg/kg, ip qd for 3 days relative to control; assay type: functional; set-up: scale not given: the % may be the effect or the level left; conditions: route intraperitoneal

Row | IC50 [1] [mg/L] | MIC [1] [mg/L] | IC50 [2] [mg/L] | MIC [2] [mg/L] | MIC [3] [mg/L] | Structure (SMILES) | IC50 [3] [mg/L] | IC50 [5] [mg/L] | Activity [6] | also measured
1 | 8.6 | 10 | 2.7 | 5 | 1.3 | [I-].c1ccc(Sc2cc3ccccc3[n+](CCCCCC3CCCCC3)c2)cc1 | 0.5 | 4.6 | – | MFC [1]: > 20 mg/L; MFC [3]: 2.5 mg/L; IC50 [4]: 0.7 mg/L; MFC [4]: 2.5 mg/L; MIC [4]: 1.3 mg/L
2 | 1 | 2.5 | 6 | 20 | – | COc1ccc2c(c1)sc1cc3ccccc3[n+](C)c12.[I-] | – | – | inactive | –
3 | 9.5 | > 20 | 2.5 | > 20 | – | C[n+]1c2ccccc2cc2sc3cc(Cl)ccc3c21.[I-] | – | > 10 | inactive | –
4 | – | – | – | – | – | C[n+]1c2cccc(O)c2cc2sc3ccccc3c21 | – | – | inactive | Activity [7]: inactive; Activity [8]: inactive
5 | – | – | 20 | > 20 | – | C[n+]1c2ccccc2cc2sc3ccc(Cl)cc3c21.[I-] | – | > 10 | inactive | Activity [7]: inactive
6 | 6.5 | 10 | > 20 | > 20 | > 20 | C[n+]1c2ccccc2cc2sc3c(Cl)cccc3c21.[I-] | 15 | – | – | –
7 | – | 2.5 | 2 | > 20 | > 20 | C[n+]1c2ccc(Cl)cc2cc2sc3ccccc3c21.[I-] | 15 | > 23.8 | – | –
8 | 20 | – | > 20 | > 20 | 8 | COc1ccc2c(c1)cc1sc3ccccc3c1[n+]2C.[I-] | – | > 23.8 | – | –

Row | Structure (SMILES) | IC50 [1] [mg/L] | MIC [1] [mg/L] | IC50 [2] [mg/L] | MIC [2] [mg/L] | MIC [3] [mg/L] | IC50 [3] [mg/L] | IC50 [5] [mg/L] | Activity [6] | also measured
9 | C[n+]1c2cc(Cl)ccc2cc2sc3ccccc3c21.O=S(=O)([O-])C(F)(F)F | – | – | – | – | > 20 | 10 | > 10 | – | Activity [7]: inactive; Activity [8]: inactive
10 | C[n+]1c2cccc(Cl)c2cc2sc3ccccc3c21.O=S(=O)([O-])C(F)(F)F | 3 | 10 | – | – | – | – | – | inactive | Activity [8]: inactive
11 | COc1ccc2cc3sc4ccccc4c3[n+](C)c2c1.O=S(=O)([O-])C(F)(F)F | 0.4 | 0.6 | 1.5 | 10 | > 20 | 6 | > 10 | – | Activity [9]: 10%; Activity [10]: 99%; Activity [11]: 24%; Activity [12]: Toxic; Activity [13]: 34%; Activity [14]: 50%; MTD at 72 h [15]: 10 mg/kg; Activity [16]: 26%; Activity [17]: Non-toxic; Activity [18]: 26%; Activity [19]: Non-toxic; Activity [20]: 86%
12 | C[C@@H]1[C@H](O)[C@@H](C)/C=C/C=C/C=C/C=C/C=C/C=C/C=C/[C@H](O[C@@H]2O[C@H](C)[C@@H](O)[C@H](N)[C@@H]2O)C[C@@H]2O[C@](O)(C[C@@H](O)C[C@@H](O)[C@H](O)CC[C@@H](O)C[C@@H](O)CC(=O)O[C@H]1C)C[C@H](O)[C@H]2C(=O)O [AMPHOTERICIN B] | 1.5 (≈ 1.62 µM) | 2.5 (≈ 2.71 µM) | – | 0.6 (≈ 0.649 µM) | 2.5 (≈ 2.71 µM) | 1.5 (≈ 1.62 µM) | – | – | –
